From patent US11072634B2, “Inhibitors of transglutaminases” (Zedira GmbH, priority 2016, dated 2021)

Key:
[1] = molecular target: T1, recombinant human factor XIII A-subunit (rhFXIII-A, plasma transglutaminase) (Homo sapiens, UniProt P00488); assay: Inhibition of rec. human coagulation factor XIII (fluorescence, Abz-NE(CAD-DNP)EQVSPLILLK-OH); assay type: biochemical; settings: Table 1, selectivity with respect to FXIII; read-out: IC50 FXIII
T1 construct: His6; purchased Zedira 1027 (so in the source); T027)
T1 sequence (P00488 39-732 limits assumed): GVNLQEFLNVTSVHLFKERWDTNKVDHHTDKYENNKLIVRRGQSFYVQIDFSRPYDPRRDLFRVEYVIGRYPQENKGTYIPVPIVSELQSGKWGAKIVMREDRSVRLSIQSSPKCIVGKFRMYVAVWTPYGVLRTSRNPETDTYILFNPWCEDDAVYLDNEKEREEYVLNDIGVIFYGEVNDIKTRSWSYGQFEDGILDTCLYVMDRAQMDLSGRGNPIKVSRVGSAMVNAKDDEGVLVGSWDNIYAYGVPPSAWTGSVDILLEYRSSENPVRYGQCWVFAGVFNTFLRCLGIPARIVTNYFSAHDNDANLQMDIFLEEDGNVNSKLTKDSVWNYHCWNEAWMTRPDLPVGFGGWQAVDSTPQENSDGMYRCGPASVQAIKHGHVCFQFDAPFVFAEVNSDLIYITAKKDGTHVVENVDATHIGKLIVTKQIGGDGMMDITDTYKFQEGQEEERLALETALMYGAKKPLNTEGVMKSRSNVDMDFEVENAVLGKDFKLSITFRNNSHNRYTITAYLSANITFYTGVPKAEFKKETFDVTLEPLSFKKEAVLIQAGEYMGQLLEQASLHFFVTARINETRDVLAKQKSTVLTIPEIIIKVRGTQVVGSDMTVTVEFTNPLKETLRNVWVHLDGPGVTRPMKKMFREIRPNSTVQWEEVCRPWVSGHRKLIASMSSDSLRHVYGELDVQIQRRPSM
Summary of the method: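 His6-rhFXIII activated by human alpha thrombin in Tris buffer pH 7.4 with 7.5 mM CaCl2, 5 mM DTT, 13.4 mM glycine methylester and 50 μM quenched peptide substrate. Fluorescence (ex 313, em 418 nm) followed at 37 °C for 35 min; IC50 from slope between 20 and 30 min versus 2% DMSO control.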

[2] = test system: CaCo2 (human colon carcinoma cell line); assay: Metabolic activity, EZ4U-Assay; assay type: cell-based; settings: highest concentration 1 mM
Procedure: (§1) The following cell lines are used for determination of cytotoxicity: • CaCo2 (human colon carcinoma cell line) • Huh7 (human liver carcinoma cell line).
(§2) Cells are cultivated in DMEM/10% FCS at 37° C. and 5% CO2 in a 96 well plate with an initial seeding density of 2×10^4 cells/well.
(§3) Transglutaminase inhibitors are added to the cells with final concentrations from 0.1 μM to 1 mM one hour after seeding. The different inhibitor dilutions are prepared in DMSO, resulting in a final concentration of 1% (v/v) DMSO in every well (2 μl inhibitor in 200 μl cell culture medium). Cycloheximide (2.5 μg/ml) and Camptothecin (0.2 μg/ml) are used as control compounds. All measurements are performed in triplicates.
(§4) Determination of metabolic activity using EZ4U-Assay (Biomedica, Cat. No. BI-5000).
(§5) After 48 h of incubation with inhibitors or controls, the tetrazolium substrate is added to the cells. Substrate turnover by the cells is measured over two hours at 450 nm (using 630 nm was reference wavelength).

[3] = test system: Huh7 (human liver carcinoma cell line); assay: Metabolic activity, EZ4U-Assay; assay type: cell-based; settings: highest concentration 1 mM
Procedure: as §1, §2, §3, §4, §5

Row | SMILES | IC50 [1] | Cytotoxicity concentration (>10% deviation from negative control), EZ4U, Caoo2 [2] | Cytotoxicity concentration (>10% deviation from negative control), EZ4U, Huh-7 [3]
1 | CC(=O)N1CCC[C@H]1C(=O)N[C@@H](CCC(=O)C(N)=O)C(=O)N1CCN(c2ncccc2C)CC1 [Compound E07, (S)-1-acetyl-N—((S)-6-amino-1-(4-(3-methylpyridin-2-yl)piperazin-1-yl)-1,5,6-trioxohexan-2-yl)pyrrolidine-2-carboxamide] | > 100 µM | >1 mM | >1 mM
2 | COC(=O)[C@H](CC(C)C)NC(=O)[C@@H]1CCCN1C(=O)[C@@H](NC(=O)[C@H](CCC(=O)C(N)=O)NC(=O)OCc1ccccc1)C(C)C [Compound E02, (S)-methyl 2-((S)-1-((S)-2-((S)-6-amino-2-(benzyloxycarbonylamino)-5,6-dioxo-hexanamido)-3-methylbutanoyl)pyrrolidine-2-carboxamido)-4-methylpentanoate] | > 100 µM | >1 mM | >1 mM
3 | CC(=O)N[C@@H](CCC(=O)C(N)=O)C(=O)N1CCN(c2ccccc2Cl)CC1 [Compound E06, (S)-5-acetamido-6-(4-(2-chlorophenyl)piperazin-1-yl)-2,6-dioxohexanamide] | > 100 µM | >1 mM | >1 mM
